Measurements from patent US6984403B2, “Azithromycin dosage forms with reduced side effects” (Pfizer Inc., priority 2003, dated 2006).
In brackets after ≈: the same amount, converted by molar mass. Read-outs that look alike come from different tables or passages of the source.

Tests used:
[1] = 3,995 human patients, all dose levels combined, cited from earlier work
[2] = taken simultaneously with antacids; cited from earlier work
[3] = cited from earlier work
[4] = Azithromycin solubility as a function of pH; assay type: physicochemical
Experimental: The effective amount of alkaline agent that would suppress the dissolution of azithromycin in the stomach and thereby result in an improvement in the toleration of the immediate release (IR) formulation was calculated as follows. The IR formulation, without an alkalizing agent, releases about 92% of the drug in 30 minutes at pH 6.0 as described in Example 5, i.e., 3.07% per minute at pH 6.0. To improve the toleration, the azithromycin dissolution rate must be reduced, preferably to a rate that will release only about 1.5 gA, or less, in the first 30 minutes or no greater than 2.5% per minute. It was assumed that the rate of drug dissolution from an IR formulation is directly proportional to the solubility of azithromycin, which is dependent on the pH as shown in Table 10.

[5] = adult humans, single 1 gram dose, oral suspension
[6] = adult humans, single 2 gram, oral suspension
[7] = pediatric humans, oral suspension 10 mg/kg on Day 1 and 5 mg/kg on days 2–5
[8] = pediatric humans, single 30 mg/kg dose, oral suspension

Structure (SMILES): CC[C@H]1OC(=O)[C@H](C)[C@@H](O[C@H]2C[C@@](C)(OC)[C@@H](O)[C@H](C)O2)[C@H](C)[C@@H](O[C@@H]2O[C@H](C)C[C@H](N(C)C)[C@H]2O)[C@](C)(O)C[C@@H](C)CN(C)[C@H](C)[C@@H](O)[C@]1(C)O [Azithromycin, azithromycin]
- patients reporting GI side effects ([1]; oral): 9.6%
- frequency of abdominal pain [1]: 2.5%
- frequency of diarrhea [1]: 3.6%
- frequency of nausea [1]: 2.6%
- reduction of azithromycin maximum serum concentration Cmax by antacids [2]: 24%
- reported incidence of abdominal pain [3, 5]: 5%
- reported incidence of diarrhea/loose stools [3, 5]: 7%
- reported incidence of nausea [3, 5]: 5%
- reported incidence of vomiting [3, 5]: 2%
- reported incidence of abdominal pain [3, 6]: 7%
- reported incidence of diarrhea/loose stools [3, 6]: 14%
- reported incidence of vomiting [3, 6]: 7%
- reported incidence of abdominal pain [3, 7]: 2%
- reported incidence of diarrhea/loose stools [3, 7]: 4%
- reported incidence of vomiting [3, 7]: 2%
- reported incidence of diarrhea/loose stools [3, 8]: 6.4%
- reported incidence of nausea [3, 8]: 1.7%
- reported incidence of vomiting [3, 8]: 4%
- solubility ([4]; aqueous buffer, pH 6.0, obtained by interpolation from Table 10, read-out: azithromycin solubility at pH 6.0): 390 mg/mL (≈ 521 mM)
- solubility ([4]; pH 2.88, aqueous buffer, read-out: Azithromycin Solubility): 440 mg/mL (≈ 587 mM)
- solubility ([4]; pH 4.09, aqueous buffer, read-out: Azithromycin Solubility): 430 mg/mL (≈ 574 mM)
- solubility ([4]; pH 6.15, aqueous buffer, read-out: Azithromycin Solubility): 380 mg/mL (≈ 507 mM)
- solubility ([4]; pH 6.42, aqueous buffer, read-out: Azithromycin Solubility): 310 mg/mL (≈ 414 mM)
- solubility ([4]; pH 6.61, aqueous buffer, read-out: Azithromycin Solubility): 250 mg/mL (≈ 334 mM)
- solubility ([4]; pH 6.65, aqueous buffer, read-out: Azithromycin Solubility): 140 mg/mL (≈ 187 mM)
- solubility ([4]; pH 6.75, aqueous buffer, read-out: Azithromycin Solubility): 120 mg/mL (≈ 160 mM)
- solubility ([4]; pH 6.87, aqueous buffer, read-out: Azithromycin Solubility): 36 mg/mL (≈ 48.1 mM)
- solubility ([4]; pH 7.41, aqueous buffer, read-out: Azithromycin Solubility): 5 mg/mL (≈ 6.68 mM)
- solubility ([4]; pH 8.02, aqueous buffer, read-out: Azithromycin Solubility): 0.5 mg/mL (≈ 0.668 mM)
- solubility ([4]; pH 8.85, aqueous buffer, read-out: Azithromycin Solubility): 0.02 mg/mL (≈ 0.0267 mM)
- solubility ([4]; pH 10.34, aqueous buffer, read-out: Azithromycin Solubility): 0.005 mg/mL (≈ 0.00668 mM)
